In the supplement of paper PMC10307832:

Each cell line was assayed with CN1CCN(CC1)C2=CC(=C(C=C2)NC3=NC=C4C(=N3)N(C5=CC=CC=C5C(=O)N4C)C)OC [XMD8-85] + Cc1nc(NC(=O)N2CCC[C@H]2C(N)=O)sc1-c1ccnc(C(C)(C)C(F)(F)F)c1 [Alpelisib] (partner 2 µM) (assay: relative viability (nuclei count vs DMSO), 5 days (fraction); higher = more cells survive). Conditions: first compound 0.08 µM.
Procedure, shortened: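 Lung cancer cell lines, seeded in 1536-well plates, were treated the following day by pin tool with a single drug or with five library-drug doses (not always all listed) in √10 steps on top of a fixed anchor-drug dose. Cells were fixed and nuclei stained in one step after 5 days, and nuclei were counted. Relative viability is the nuclei count for treated wells divided by that for vehicle wells, reported as medians of duplicate plates.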
201T was tested, and the relative viability was 0.966.
A549 was tested, and the relative viability was 0.744.
For A-427, the relative viability was 1.09.
ABC-1 was tested, and the relative viability was 1.03.
For BEN, the relative viability was 0.871.
Work on CAL-12T yielded a relative viability of 1.28.
COR-L23 was tested, and the relative viability was 0.882.
With Calu-6 the relative viability was 1.02.
EBC-1 gave a relative viability of 0.871.
In the case of EKVX, the relative viability is reported as 0.776.
EMC-BAC-2 showed a relative viability of 0.74.
H3255 was tested, and the relative viability was 0.586.
In the case of HARA, the relative viability is reported as 0.932.
HCC-15 gave a relative viability of 0.934.
Cell Line HCC-44 has a relative viability of 0.835.
HCC-78 showed a relative viability of 0.384.
For HCC-366, the relative viability was 0.532.
HCC-827 gave a relative viability of 0.946.
In the case of HOP-62, the relative viability is reported as 0.85.
For IA-LM, the relative viability was 0.613.
For LC-2-ad, the relative viability was 0.893.
LCLC-97TM1 was tested, and the relative viability was 0.294.
With LCLC-103H the relative viability was 0.88.
NCI-H1299 showed a relative viability of 1.15.
NCI-H1563 gave a relative viability of 1.04.
NCI-H1703 showed a relative viability of 0.305.
In the case of NCI-H2170, the relative viability is reported as 0.759.

Same assay, conditions: first compound 0.253 µM
Work on 201T yielded a relative viability of 1.05.
A549 was tested, and the relative viability was 0.883.
With A-427 the relative viability was 1.13.
Work on ABC-1 yielded a relative viability of 1.15.
For BEN, the relative viability was 1.06.
Work on CAL-12T yielded a relative viability of 1.3.
COR-L23 was tested, and the relative viability was 0.887.
With COR-L 105 the relative viability was 1.22.
Calu-6 showed a relative viability of 0.985.
EBC-1 was tested, and the relative viability was 0.94.
EKVX was tested, and the relative viability was 0.996.
Cell Line EMC-BAC-2 has a relative viability of 0.739.
With EPLC-272H the relative viability was 0.916.
H3255 gave a relative viability of 0.745.
Cell Line HARA has a relative viability of 0.675.
In the case of HCC-15, the relative viability is reported as 0.851.
In the case of HCC-44, the relative viability is reported as 0.79.
In the case of HCC-78, the relative viability is reported as 0.405.
In the case of HCC-366, the relative viability is reported as 0.573.
HCC-827 gave a relative viability of 1.06.
In the case of HOP-62, the relative viability is reported as 0.967.
For LC-2-ad, the relative viability was 0.832.
With LCLC-97TM1 the relative viability was 0.238.
Cell Line LCLC-103H has a relative viability of 1.04.
With NCI-H1299 the relative viability was 0.948.
For NCI-H1563, the relative viability was 0.967.
NCI-H1703 was tested, and the relative viability was 0.433.
NCI-H2170 was tested, and the relative viability was 0.812.

Same assay, conditions: first compound 0.8 µM
Cell Line 201T has a relative viability of 1.
In the case of A549, the relative viability is reported as 0.806.
A-427 was tested, and the relative viability was 1.1.
ABC-1 showed a relative viability of 1.37.
Cell Line BEN has a relative viability of 0.966.
For CAL-12T, the relative viability was 1.11.
COR-L23 gave a relative viability of 0.742.
Work on COR-L 105 yielded a relative viability of 0.926.
Calu-6 was tested, and the relative viability was 1.05.
Work on EKVX yielded a relative viability of 0.935.
EMC-BAC-2 was tested, and the relative viability was 0.752.
For EPLC-272H, the relative viability was 0.93.
H3255 gave a relative viability of 0.68.
In the case of HARA, the relative viability is reported as 0.911.
In the case of HCC-15, the relative viability is reported as 0.997.
HCC-44 showed a relative viability of 0.852.
Cell Line HCC-78 has a relative viability of 0.39.
Cell Line HCC-366 has a relative viability of 0.42.
HCC-827 was tested, and the relative viability was 0.939.
HOP-62 showed a relative viability of 1.04.
Work on IA-LM yielded a relative viability of 0.66.
Work on LC-2-ad yielded a relative viability of 0.888.
With LCLC-97TM1 the relative viability was 0.293.
In the case of LCLC-103H, the relative viability is reported as 0.933.
NCI-H1299 showed a relative viability of 1.08.
Cell Line NCI-H1563 has a relative viability of 0.882.
NCI-H1703 showed a relative viability of 0.337.

Same assay, conditions: first compound 2.53 µM
201T gave a relative viability of 1.08.
With A549 the relative viability was 0.807.
A-427 gave a relative viability of 1.11.
In the case of ABC-1, the relative viability is reported as 1.01.
BEN gave a relative viability of 0.662.
In the case of CAL-12T, the relative viability is reported as 0.842.
For COR-L23, the relative viability was 0.712.
COR-L 105 was tested, and the relative viability was 0.635.
Calu-6 was tested, and the relative viability was 1.08.
In the case of EBC-1, the relative viability is reported as 0.694.
Cell Line EKVX has a relative viability of 0.986.
Cell Line EMC-BAC-2 has a relative viability of 0.733.
EPLC-272H gave a relative viability of 1.01.
H3255 was tested, and the relative viability was 0.776.
HARA showed a relative viability of 0.445.
HCC-15 showed a relative viability of 0.894.
Work on HCC-44 yielded a relative viability of 0.64.
Work on HCC-78 yielded a relative viability of 0.3.
HCC-366 gave a relative viability of 0.373.
For HCC-827, the relative viability was 1.08.
For HOP-62, the relative viability was 0.908.
For IA-LM, the relative viability was 0.77.
With LC-2-ad the relative viability was 0.735.
With LCLC-97TM1 the relative viability was 0.263.
Cell Line LCLC-103H has a relative viability of 0.961.
For NCI-H1299, the relative viability was 1.07.
With NCI-H1563 the relative viability was 0.814.
NCI-H1703 was tested, and the relative viability was 0.401.
With NCI-H2170 the relative viability was 0.816.

Same assay, conditions: first compound 8 µM
201T was tested, and the relative viability was 0.901.
A549 showed a relative viability of 0.759.
For A-427, the relative viability was 1.
Work on BEN yielded a relative viability of 0.553.
CAL-12T gave a relative viability of 0.658.
Work on COR-L23 yielded a relative viability of 0.506.
COR-L 105 was tested, and the relative viability was 0.358.
Work on Calu-6 yielded a relative viability of 0.865.
Cell Line EBC-1 has a relative viability of 0.336.
For EKVX, the relative viability was 0.899.
With EMC-BAC-2 the relative viability was 0.72.
Cell Line EPLC-272H has a relative viability of 0.624.
H3255 showed a relative viability of 0.406.
In the case of HARA, the relative viability is reported as 0.27.
For HCC-15, the relative viability was 0.661.
HCC-44 gave a relative viability of 0.307.
HCC-78 gave a relative viability of 0.285.
HCC-366 showed a relative viability of 0.273.
Cell Line HCC-827 has a relative viability of 0.996.
IA-LM gave a relative viability of 0.225.
